Source: patent publication US8765676B2, “Calcium sensing receptor modulating compounds and pharmaceutical use thereof” (Leo Pharma A/S, priority 2009, dated 2014)

Experiments:
[1] = biological target: T1, human CaSR (Homo sapiens, UniProt P41180); assay: Functional whole cell assay (modulation of human CaSR), IP1 accumulation in CHO-K1 cells; type: cell-based; settings: human CaSR stably expressed on CHO-K1 cells, 2 mM Ca2+, IP-One htrf
T1 sequence (P41180 20-1078): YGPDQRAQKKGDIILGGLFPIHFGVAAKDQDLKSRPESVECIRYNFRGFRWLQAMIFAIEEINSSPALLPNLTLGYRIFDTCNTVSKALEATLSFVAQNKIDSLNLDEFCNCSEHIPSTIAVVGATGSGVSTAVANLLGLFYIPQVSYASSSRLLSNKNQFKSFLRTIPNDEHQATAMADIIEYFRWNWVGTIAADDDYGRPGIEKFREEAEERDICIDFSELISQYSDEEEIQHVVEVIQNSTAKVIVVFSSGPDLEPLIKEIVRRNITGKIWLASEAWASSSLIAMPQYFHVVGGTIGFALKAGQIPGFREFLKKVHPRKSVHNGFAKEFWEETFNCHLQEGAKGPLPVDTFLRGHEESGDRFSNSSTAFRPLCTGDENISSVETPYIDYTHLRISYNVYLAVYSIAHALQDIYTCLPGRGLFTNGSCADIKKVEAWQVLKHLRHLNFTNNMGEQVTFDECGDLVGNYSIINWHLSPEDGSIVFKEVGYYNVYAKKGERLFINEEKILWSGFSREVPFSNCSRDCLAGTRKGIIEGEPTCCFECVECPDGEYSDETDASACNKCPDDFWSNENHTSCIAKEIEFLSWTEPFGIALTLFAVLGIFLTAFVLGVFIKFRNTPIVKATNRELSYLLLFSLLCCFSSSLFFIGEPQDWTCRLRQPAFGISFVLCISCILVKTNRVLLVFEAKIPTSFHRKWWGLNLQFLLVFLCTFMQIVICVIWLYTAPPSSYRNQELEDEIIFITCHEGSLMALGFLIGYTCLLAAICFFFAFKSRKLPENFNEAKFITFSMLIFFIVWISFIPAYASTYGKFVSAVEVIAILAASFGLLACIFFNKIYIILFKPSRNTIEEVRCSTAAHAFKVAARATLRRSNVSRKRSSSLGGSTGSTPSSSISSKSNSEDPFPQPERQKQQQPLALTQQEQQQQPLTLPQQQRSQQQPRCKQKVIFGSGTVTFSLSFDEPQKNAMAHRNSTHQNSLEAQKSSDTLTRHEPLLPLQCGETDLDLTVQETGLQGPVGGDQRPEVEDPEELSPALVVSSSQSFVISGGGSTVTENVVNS
Description: The assay investigates a compound's functional ability to act as a biological positive modulator on the human CaSR. Activation of the receptor expressed on CHO-K1 cells is detected through the G alpha q pathway, the activation of phospholipase C and the accumulation of intracellular inositol phosphate (IP) as described earlier [Sandrine Ferry, Bruno Chatel, Robert H. Dodd, Christine Lair, Danielle Gully, Jean-Pierre, Maffrand, and Martial Ruat. Effects of Divalent Cations and of a Calcimimetic on Adrenocorticotropic Hormone Release in Pituitary Tumor Cells. BIOCHEMICAL AND BIOPHYSICAL RESEARCH COMMUNICATIONS 238, 866-873 (1997)]. The human CaSR is stably expressed on a CHO-K1 cell clone, stimulated with a basal level of calcium and challenged with the tested compound. The level of IP1 is determined using the IP-One htrf kit (Cisbio, France). CHO-K1 cells not transfected with the CaSR fail to elicit an IP1 response upon calcium and/or compound stimulation.
The ORF coding for the human CaSR (genebank: NM_000388) was acquired from Invitrogen Corp, USA and subsequently cloned into the mammalian expression vector pCDA3.1.
CHO-K1 cells were transfected using Lipofectamine according to manufacturer's protocol (400.000 cells/well were seeded in a 6-well plate and transfected after 24 hours using 2 μg DNA and 5 μl lipofectamine). After another 24 hours the cells were detached, seeded and subjected to 1 mg/ml of G-418. Following 7 days growth single clones were picked, the CaSR expression evaluated using the 5C10 antibody against CaSR, the clones with the highest expression were selected and tested for functional response. The preferred clone was continuously cultured according to standard procedures described in ATCC (American Type Culture Collection) protocols for CHO-K1 with the addition of 500 μg/ml G-418.
On the assay day cells were harvested and resuspended to 13*10^6 cells/ml in stimulation buffer (containing: Hepes 10 mM, MgCl2 0.5 mM, KCl 4.2 mM, NaCl 146 mM, glucose 5.5 mM, LiCl 50 mM at pH 7.4). Five μl cell solution were pipetted into a well (white 384-well plate, Perkin Elmer Optiplate) followed by 5 μl compound diluted in a Ca^2+-containing (to the final concentration of 2 mM) buffer. After compound stimulation for 1 hour at 37° C. 10 ul of IP-One assay reagents were added and incubated for another 1 hour at room temperature. Finally the plate was read using a Perkin Elmer EnVision, according to protocol supplied by the IP-One assay kit manufacturer. The FRET ratio was calculated by dividing the 665 nm emission signal with that of the 615 nm.

[2] = Pharmacokinetic profile following intravenous administration in rats; type: in vivo; settings: serum, rat, 0.5 mg/kg
Procedure: A rat is dosed intravenously with a solution of test compound (0.5 mg/kg) in DMSO/EtOH/H2O/propylene glycol [0.2:0.8:5:4] and blood samples are taken from the sublingual venous plexus after 2 min, 10 min, 30 min, 1 h, 2 h, 4 h and 6 h.
Blood samples are taken in BD Vacutainer SST serum separation tubes, serum is isolated by centrifugation, transferred to micronics tubes and analyzed. Samples are kept at −18° C. pending analysis.
Mass spectrometer (API5000 series) parameters are optimised to analyse for the specific compounds and test injections are performed to confirm the validity of the established generic chromatography method. The generic method is based on fast gradient (2.5 min) analysis on C18 column with mobile phases consisting methanol, ammonium acetate, formic acid and water.
Standards are prepared in rat serum to cover the analytical range 0.1 to 300 ng/ml. Standards, blank serum and study samples are applied to 96 deepwell plate and proteins are precipitated by addition of acetonitrile containing internal standard. Samples are analysed on LC-MS/MS usually over night.
As standard, the 2 and 10 min samples are diluted 10 times with rat serum prior to analysis. Other samples may need similar dilution to keep quantification below 300 ng/ml.
Quantification is performed based on the ratio between analyte and internal standard. The curve should preferably fit a linear curve using a 1/x weighting factor. At least a factor of two is needed to distinguish between blank serum and lowest standard. If this is not the case the quantification of the specific experiment may be raised.
Calculation of T½ requires at least three datapoints describing a true elimination phase. If such three points are not available AUC (0-inf) can not be estimated. In these cases […](0-6 h) is calculated instead.
Total clearance of drug from serum (Cl_iv) is calculated from: Cl—iv=Dose/AUC
Terminal volume of distribution (Vd) is defined as the volume in which the amount of drug would need to be uniformly distributed to produce the observed serum concentration and is calculated from: Vd=T½×Cl—iv/(ln 2)

[3] = Clearance in human liver microsomes; type: in vitro ADME; settings: 0.5 μM compound, 0.5 mg/mL microsomes, 1 mM NADPH
Procedure: Test compound concentration is 0.5 μM, microsome concentration is 0.5 mg/mL and NADPH concentration is 1 mM in the incubation. The described method is performed by the liquid handling system Tecan RSP and is based on a 96-well format.
Control incubations with test compound without NADPH and test compound without microsomes are conducted to investigate non-CYP mediated metabolism and stability in phosphate buffer at 37° C., respectively.
The human liver microsomal suspension in phosphate buffer is mixed with NADPH. The mixture is pre-heated (7 min) to 37° C. Test compound is added, and the mixture is incubated for 30 minutes. Incubations are run in duplicate. Samples are withdrawn at predetermined stop times and mixed with methanol containing internal standard (IS) to terminate all enzyme activity and precipitate proteins. A control without NADPH (to detect problems such as nonspecific protein binding, heat instability or non-CYP mediated metabolism) and a control without microsomes (for assessing compound stability in the absence of any active enzymes) are tested.
The percentage of organic solvent in the incubations is less than 1%. Careful inspections of reagents are performed prior to the start of any experiment to ensure all reagents are in solution.
The 96-well plates are centrifuged. Test compound depletion, using a compound specific LC/MS/MS method, is determined.
The logarithm of the peak area ratios of test compound to internal standard (IS) versus incubation time is plotted in a graph.
The rate constant (k) (min^−1) of test compound depletion is calculated from the linear part of the curve and the half-time (t1/2) in minutes can be calculated from the rate constant (Eq. 1). t1/2=(ln 2)/k (Eq. 1)
Intrinsic clearance (Clint) (mL/min/mg protein) is calculated from: Clint=k/c (Eq. 2) where c is the microsomal protein concentration in mg/mL.
Conversion to apparent clearance (Clapp) (mL/min/kg) is done by Eq. 3: Clapp=Clint×a×b/d (Eq. 3) where a, b and d are the scaling factors for normalizing Clint to human body weight.
The following human scaling factors are used:
a: 45 (microsomal protein/liver weight (mg/g))
b: 1500 (liver weight (g))
Apparent clearance below approximately 10 mL/min/kg human body weight (corresponding to extraction ratio of approx. 30%) is considered as low clearance (high metabolic stability). Apparent intrinsic clearance above approximately 60 mL/min/kg human body weight (corresponding to extraction ratio of approx. 75%) is considered as high clearance (low metabolic stability).

Compound | EC50 [1] | Vd [2] | Clearance (Clapp) in human liver microsomes [3]
COc1cc([C@@H](C)N[C@H]2CC[C@@H](c3ccc(-c4nnn[nH]4)cc3)C2)ccc1F [Compound 1182, (1S,3R)—N-[(1R)-1-(4-fluoro-3-methoxy-phenyl)ethyl]-3-[4-(1H-tetrazol-5-yl)phenyl]cyclopentanamine] | < 500 nM | < 10 L/kg | A (A: <20 mL/min/kg)
COc1cc([C@@H](C)N[C@H]2CC[C@@H](c3ccc(C(=O)NCCO)cc3)C2)ccc1F [Compound 1176, 4-{(1R,3S)-3-[(1R)-1-(4-Fluoro-3-methoxy-phenyl)-ethylamino]-cyclopentyl}-N-(2-hydroxy-ethyl)-benzamide] | < 500 nM | – | A (A: <20 mL/min/kg)
COc1cc([C@@H](C)N[C@H]2CC[C@@H](c3ccc(S(=O)(=O)NCCO)cc3)C2)ccc1F [Compound 1187, 4-[(1R,3S)-3-[[(1R)-1-(4-fluoro-3-methoxy-phenyl)ethyl]amino]-cyclopentyl]-N-(2-hydroxyethyl)benzenesulfonamide] | < 500 nM | > 50 L/kg | A (A: <20 mL/min/kg)
COc1cc([C@@H](C)NC2CC[C@H](c3ccc(S(C)(=O)=O)cc3)C2)ccc1F (stereo partly drawn) [Compound 1014, (1R)—(N)-[(1R/S,3S)-3-(4-methanesulfonylphenyl)cyclopentyl]-1-(4-fluoro-3-methoxyphenyl)ethanamine] | < 500 nM | – | A (A: <20 mL/min/kg)
COc1cc([C@@H](C)NC2CCC(c3ccc(CNS(C)(=O)=O)cc3)C2)ccc1F (mixture of isomers) [Compound 1181, N-[[4-[(1R/S,3R/S)-3-[[(1R)-1-(4-fluoro-3-methoxy-phenyl)ethyl]amino]cyclopentyl]-phenyl]methyl]methanesulfonamide] | < 500 nM | – | A (A: <20 mL/min/kg)

The remaining lines, values ahead:

EC50 [1] | Vd [2] | Clearance (Clapp) in human liver microsomes [3] | Compound
< 500 nM | 10 to 50 L/kg | A (A: <20 mL/min/kg) | COc1cc([C@@H](C)NC2CC[C@H](c3ccc(C(=O)NC4CCNCC4)cc3)C2)ccc1F (mixture of isomers) [Compound 1157, (1R)—(N)-[(3S)-3-[4-[piperidin-4-ylaminocarbonyl]phenyl]-cyclopentyl]-1-(4-fluoro-3-methoxyphenyl)ethanamine]
< 500 nM | 10 to 50 L/kg | A (A: <20 mL/min/kg) | COc1cc([C@@H](C)N[C@H]2CC[C@@H](c3ccc(C(=O)N4CCNC(=O)C4)cc3)C2)ccc1F [Compound 1179, 4-(4-{(1R,3S)-3-[(1R)-1-(4-Fluoro-3-methoxy-phenyl)-ethylamino]-cyclopentyl}-benzoyl)-piperazin-2-one]
< 500 nM | > 50 L/kg | A (A: <20 mL/min/kg) | COc1cc([C@@H](C)N[C@H]2CC[C@@H](c3ccc(C(=O)NCCNS(C)(=O)=O)cc3)C2)ccc1F.Cl [Compound 1178, 4-{(1R,3S)-3-[(1R)-1-(4-Fluoro-3-methoxy-phenyl)-ethylamino]-cyclopentyl}-N-(2-methanesulfonylamino-ethyl)-benzamide hydrochloride]
